{"source": "patent US20060246095A1", "about": "“Multiepitope polypeptides for cancer immunotherapy” (HADASIT MEDICAL RESEARCH SERVICES & DEVELOPMENT LTD., priority 2003, published 2006)", "key": {"specific T cell clones": {"test_system": "specific T cell clones", "experiment": "Recognition assay for peptide presentation by DC, statements on T cell clones overall", "format": "cell-based, human", "conditions": "MEP-transfected DC, Lactacystin 25 μM and 50 μM", "method": "(§1) T cell clones were co-incubated with DC in flat 96-well plate for 24 hours. DC were plated immediately after their transfection or pulsing in 6 separated plates, in the presence of GM CSF and IL-4. 1×10^5 T cells were added to 1×10^5 pulsed or transfected DC. In the longitudinal study, T cell clones were added to the transfected/pulsed DC at the following time points: T0=immediately, +12=after 12 hours, 24, 36, 48 and 72 hours. Supernatants were collected after overnight incubation. Interferon gamma release assay was performed to evaluate T cell stimulation using the ELISA method, results are presented in pg/ml.\n(§2) Lactacystin was added to DC at concentrations of 25 μM and 50 μM, 4 hours post transfection. DC were incubated with lactacystin for 70 minutes and then washed twice.\n(§3) Responding T cells were added after washing the lactacystin and co-incubated. Supernatents were collected after 20 hours.\nEfficiency of epitope presentation and stimulation of specific T cell clone proliferation were evaluated by comparing the specific T cell clones response to the DC transfected with the multiepitope, to DC that were pulsed with specific peptides or DC transfected with full length melanoma associated antigens (gp100 and MART-1), using the recognition assay. […]"}, "mice": {"test_system": "mice", "conditions": "cited from earlier work"}, "[1]": {"test_system": "peripheral blood lymphocytes of breast carcinoma patients", "conditions": "cited from earlier work"}, "[2]": {"test_system": "T cell clone CK3H6 (A2 restricted gp100 epitope 209-217)", "experiment": "Recognition assay for peptide presentation by DC (IFN-γ release ELISA), T cell clone CK3H6", "format": "cell-based, human", "method": "(§4) Dendritic cells were isolated from cytopheresis MNCs of melanoma patients with the HLA haplotypes HIA-A*0201 and HLA-DRβ1*0401. DC were generated from plastic adherent PBMCs cultured in RPMI with 10% human AB-serum, L-glutamine, penicillin-streptomycin, supplemented with GM-CSF 1000 IU/ml and IL-4 1000 IU/ml. By day 6, immature DC were harvested for electroporation.\n(§5) 2.5-3×10^6 DC were re-suspended in 100 μl nucleofector solution and added to 5 μg of DNA plasmid in 2-mm electrode gap cuvettes. Transfected DC were immediately plated with CM containing GM/IL4 or let mature using TNFα 100 ng/ml and PGE2 1000 ng/ml. GFP-transfected DCs were collected 16-24 hours later for FACS analysis.\n(§6) DC were pulsed with 1 μg/ml of the relevant peptides at 1×10^6 cells/ml. Stimulants were added after 1 hour incubation without washing the peptide.\nCK3H6 which recognizes the A2 restricted gp100 epitope 209-217.\nas §1, §2, §3\n(§7) For recognition assay of DC epitope presentation, 1×10^5 cells from different T cell clones, that were grown from PBMCs of patients, and were restricted to particular melanoma antigen peptides, were co-incubated with 1×10^5 pulsed or transfected DC, in the presence of GM-CSF and IL-4. T cell clones were added to the transfected/pulsed DC at the following time points: T=0 immediately, T=12, 24, 36, 48, 72 hours. Supernatant was collected after overnight incubation and was subjected to interferon gamma release assay, in order to evaluate the specific T cell activity towards the particular peptide presented by the DC cells.\n(§8) The results shown in the following tables represent the amount of Interferon-γ (pg/ml) secreted to the culture medium as an index for T cell stimulation."}, "[3]": {"test_system": "TIL 1940 (A2 restricted MART-1 epitope 27-35)", "experiment": "Recognition assay for peptide presentation by DC (IFN-γ release ELISA), TIL 1940", "format": "cell-based, human", "conditions": "TIL 1940", "method": "as §4, §5, §6\nTIL 1940 which recognizes the A2 restricted MART-1 epitope 27-35.\nas §1, §2, §3, §7, §8"}, "[4]": {"test_system": "TIL 1383 (A2 restricted tyrosinase epitope 369-377)", "experiment": "Recognition assay for peptide presentation by DC (IFN-γ release ELISA), TIL 1383", "format": "cell-based, human", "conditions": "control plate; peptide-pulsed DC; TIL 1383", "method": "as §4, §5, §6\nTIL 1383 which recognizes the A2 restricted tyrosinase epitope 369-377.\nas §1, §2, §3, §7, §8"}, "[5]": {"test_system": "T cell clone RB-154 (gp100 154-162 peptide)", "experiment": "Recognition assay for peptide presentation by DC (IFN-γ release ELISA), clone RB-154", "format": "cell-based, human", "conditions": "control plate; peptide-pulsed DC; clone RB-154", "method": "as §4, §5, §6, §1, §7, §8"}, "[6]": {"test_system": "T cell clone BR-B8 (DR4-restricted gp100 epitope 44-59)", "experiment": "Recognition assay for peptide presentation by DC (IFN-γ release ELISA), clone BR-B8", "format": "cell-based, human", "conditions": "control plate; peptide-pulsed DC; clone BR-B8", "method": "as §4, §5\npcDNA-MEP and pcDNA-gp100 were co-transfected to detect Class II antigen presentation as an internal control.\nBR-B8 which recognizes the DR4-restricted gp100 epitope 44-59.\nas §1, §2, §3, §7, §8"}, "[7]": {"test_system": "DC with CM (no T cell clone)", "experiment": "Recognition assay, CM in place of a T cell clone (IFN-γ background of DC)", "format": "cell-based, human", "conditions": "transfected or peptide-pulsed DC, CM instead of T cell clone", "method": "as §4, §5, §6, §1, §7, §8"}}, "data": [{"compound": "CC(=O)N[C@@H](CSC(=O)[C@]1([C@@H](O)C(C)C)NC(=O)[C@H](C)[C@@H]1O)C(=O)O", "note": "[Lactacystin]", "values": [{"measurement": "effect of proteasomal inhibition on epitope expression", "setting": "specific T cell clones", "result": "decreased the epitope expression of MEP-Mel to background level"}]}, {"compound": "BA46-6: peptide BA46-6 (NLFETPVEA) of Lactadherin, SEQ ID NO: 27 (listed as Homo sapiens)", "values": [{"measurement": "specific CTL activity", "setting": "mice", "result": "elicited specific CTL activity"}, {"measurement": "specific CTL activity", "setting": "[1]", "result": "elicited specific CTL activity"}]}, {"compound": "BA46-7: peptide BA46-7 (GLQHWVPEL) of Lactadherin, SEQ ID NO: 28 (listed as Homo sapiens)", "values": [{"measurement": "specific CTL activity", "setting": "mice", "result": "elicited specific CTL activity"}, {"measurement": "specific CTL activity", "setting": "[1]", "result": "elicited specific CTL activity"}]}, {"compound": "MART-1 27-35: peptide 27-35 of MART-1, SEQ ID NO: 18", "values": [{"measurement": "Interferon-γ secreted to the culture medium", "setting": "[2]; control plate, peptide-pulsed DC, T cell clone CK3H6", "result": 1, "unit": "pg/mL"}, {"measurement": "Interferon-γ secreted to the culture medium", "setting": "[2]; transfected or peptide-pulsed DC, Donor 1, T = 12 hours, CK3H6", "result": 11, "unit": "pg/mL"}, {"measurement": "Interferon-γ secreted to the culture medium", "setting": "[2]; transfected or peptide-pulsed DC, Donor 1, T = 24 hours, CK3H6", "result": 6, "unit": "pg/mL"}, {"measurement": "Interferon-γ secreted to the culture medium", "setting": "[2]; transfected or peptide-pulsed DC, Donor 1, T = 36 hours, CK3H6", "result": 10, "unit": "pg/mL"}, {"measurement": "Interferon-γ secreted to the culture medium", "setting": "[2]; transfected or peptide-pulsed DC, Donor 1, T = 48 hours, CK3H6", "result": 0, "unit": "pg/mL"}, {"measurement": "Interferon-γ secreted to the culture medium", "setting": "[2]; transfected or peptide-pulsed DC, Donor 1, T = 72 hours, CK3H6", "result": 0, "unit": "pg/mL"}, {"measurement": "Interferon-γ secreted to the culture medium", "setting": "[2]; transfected or peptide-pulsed DC, Donor 2, T = 12 hours, CK3H6", "result": 10, "unit": "pg/mL"}, {"measurement": "Interferon-γ secreted to the culture medium", "setting": "[2]; transfected or peptide-pulsed DC, Donor 2, T = 24 hours, CK3H6", "result": 10, "unit": "pg/mL"}, {"measurement": "Interferon-γ secreted to the culture medium", "setting": "[2]; transfected or peptide-pulsed DC, Donor 2, T = 36 hours, CK3H6", "result": 8, "unit": "pg/mL"}, {"measurement": "Interferon-γ secreted to the culture medium", "setting": "[2]; transfected or peptide-pulsed DC, Donor 2, T = 48 hours, CK3H6", "result": 0, "unit": "pg/mL"}, {"measurement": "Interferon-γ secreted to the culture medium", "setting": "[2]; transfected or peptide-pulsed DC, Donor 2, T = 72 hours, CK3H6", "result": 0, "unit": "pg/mL"}, {"measurement": "Interferon-γ secreted to the culture medium", "setting": "[3]; control plate, peptide-pulsed DC", "result": ">2000", "unit": "pg/mL"}, {"measurement": "Interferon-γ secreted to the culture medium", "setting": "[3]; transfected or peptide-pulsed DC, Donor 1, T = 12 hours", "result": 9, "unit": "pg/mL"}, {"measurement": "Interferon-γ secreted to the culture medium", "setting": "[3]; transfected or peptide-pulsed DC, Donor 1, T = 24 hours", "result": 435, "unit": "pg/mL"}, {"measurement": "Interferon-γ secreted to the culture medium", "setting": "[3]; transfected or peptide-pulsed DC, Donor 1, T = 36 hours", "result": 99, "unit": "pg/mL"}, {"measurement": "Interferon-γ secreted to the culture medium", "setting": "[3]; transfected or peptide-pulsed DC, Donor 1, T = 48 hours", "result": 0, "unit": "pg/mL"}, {"measurement": "Interferon-γ secreted to the culture medium", "setting": "[3]; transfected or peptide-pulsed DC, Donor 1, T = 72 hours", "result": 0, "unit": "pg/mL"}, {"measurement": "Interferon-γ secreted to the culture medium", "setting": "[3]; transfected or peptide-pulsed DC, Donor 2, T = 12 hours", "result": 448, "unit": "pg/mL"}, {"measurement": "Interferon-γ secreted to the culture medium", "setting": "[3]; transfected or peptide-pulsed DC, Donor 2, T = 24 hours", "result": 254, "unit": "pg/mL"}, {"measurement": "Interferon-γ secreted to the culture medium", "setting": "[3]; transfected or peptide-pulsed DC, Donor 2, T = 36 hours", "result": 49, "unit": "pg/mL"}, {"measurement": "Interferon-γ secreted to the culture medium", "setting": "[3]; transfected or peptide-pulsed DC, Donor 2, T = 48 hours", "result": 0, "unit": "pg/mL"}, {"measurement": "Interferon-γ secreted to the culture medium", "setting": "[3]; transfected or peptide-pulsed DC, Donor 2, T = 72 hours", "result": 0, "unit": "pg/mL"}, {"measurement": "Interferon-γ secreted to the culture medium", "setting": "[4]", "result": 1, "unit": "pg/mL"}, {"measurement": "Interferon-γ secreted to the culture medium", "setting": "[5]", "result": 1, "unit": "pg/mL"}, {"measurement": "Interferon-γ secreted to the culture medium", "setting": "[6]", "result": 1, "unit": "pg/mL"}, {"measurement": "Interferon-γ secreted to the culture medium", "setting": "[7]; Donor 1, T = 12 hours", "result": 10, "unit": "pg/mL"}, {"measurement": "Interferon-γ secreted to the culture medium", "setting": "[7]; Donor 1, T = 48 hours", "result": 0, "unit": "pg/mL"}, {"measurement": "Interferon-γ secreted to the culture medium", "setting": "[7]; Donor 1, T = 72 hours", "result": 0, "unit": "pg/mL"}, {"measurement": "Interferon-γ secreted to the culture medium", "setting": "[7]; Donor 2, T = 12 hours", "result": 9, "unit": "pg/mL"}, {"measurement": "Interferon-γ secreted to the culture medium", "setting": "[7]; Donor 2, T = 24 hours", "result": 7, "unit": "pg/mL"}, {"measurement": "Interferon-γ secreted to the culture medium", "setting": "[7]; Donor 2, T = 36 hours", "result": 8, "unit": "pg/mL"}, {"measurement": "Interferon-γ secreted to the culture medium", "setting": "[7]; Donor 2, T = 48 hours", "result": 0, "unit": "pg/mL"}, {"measurement": "Interferon-γ secreted to the culture medium", "setting": "[7]; Donor 2, T = 72 hours", "result": 0, "unit": "pg/mL"}]}]}
